Patent US20230021946A1, “MONOMERIC FUSION PEPTIDES AND METHOD OF USE THEREOF” (priority 2021, published 2023)
Read-outs that look alike come from different tables or passages of the source. [ ]: non-standard residue; d: D form. Nva = CCC[C@H](N)C(=O)O

Assays:
[1] = Stability in human plasma at 37° C.; assay type: in vitro ADME; conditions: for % of Time 0 / remaining at 1 h, 1000 ng/ml / remaining at 8 h, 1000 ng/ml / remaining at 22 h, 1000 ng/ml: 1000 ng/ml; for % of Time 0: 0.00 hrs, N=3; for remaining at 1 h, 1000 ng/ml / remaining at 8 h, 1000 ng/ml / remaining at 22 h, 1000 ng/ml: N=3, read-out: % of Time 0; for resistance to proteolytic degradation compared with GLP1 peptide: 8 and 22 hours of incubation
Experimental: The stability and resistance to proteolytic degradation of a number of ALY688-GLP1v fusion peptides were assessed following incubation in human plasma at 37° C.
HPLC (Supelco Discovery BIO Wide Pore C5-3 (2.1×50 mm) with a slow gradient to separate possible degradation products) was used to quantify each peptide. High resolution mass spectrometry (Thermo Q Exactive) Plus was used to collect full scan and MS2 spectra to characterize any possible degradants. The data were evaluated both manually and using Proteome Discoverer data mining software.
In the above tables, Temperature=37° C., Concentration=1000 ng/ml, and N=3/time point.

[2] = Oral glucose tolerance test after single intravenous injection in mice; assay type: in vivo; conditions: mice fasted 4 hours, intravenous injection 10 minutes before oral glucose load 1 g/kg
Experimental: The oral glucose load was 1 g glucose/kg body weight. Blood glucose levels were measured with a glucometer at time −30 minutes, 0 (right before the oral glucose load), 15, 30, 60 and 90 minutes after the oral glucose load. Mice were euthanized after the time 90 minutes.

[3] = Pharmacokinetic profile in mice after single subcutaneous injection; assay type: in vivo; conditions: 10 mg/kg; for AUC(0-t) / Cmax / Tmax: mouse, sc, plasma
Experimental: GLP1v peptide (with Gly8 substitution) and GLP1v fusion peptides were administered once by subcutaneous injection (concentration=10 mg/kg). Blood was collected into K2EDTA tubes containing a cocktails of protease inhibitors (DPP-4 and Aprotinin). The Bioanalytical Method BAM.0634.01 was used for the quantitation of GLP1v and GLP1v fusion peptides in K2EDTA mouse plasma. It is based on protein precipitation extraction followed by LC-MS/MS instrumental analysis and covers a measurement range from 1.00 to 1000 ng/mL. Samples were analyzed on a Waters Acquity liquid chromatograph interfaced with a Thermo Scientific TSQ Vantage triple quadrupole mass spectrometer with ESI ionization.

[4] = system: P38MAPK (T180/Y182) phosphorylation; conditions: L6 murine skeletal muscle cells, ALY688 alone, previously shown; cited from earlier work

Molecule: CCC[C@H](NC(=O)[C@@H]1CCCN1C(=O)[C@@H](NC(=O)[C@H](N)CC(N)=O)[C@@H](C)CC)C(=O)N[C@@H](CC(C)C)C(=O)N[C@@H](Cc1ccc(O)cc1)C(=O)N[C@H](CO)C(=O)N[C@@H](Cc1ccccc1)C(=O)N[C@@H](C)C(=O)N[C@H](CO)C(=O)NCC(=O)NCC(=O)NCC(=O)NCCCC[C@H](NC(=O)[C@@H](NC(=O)[C@H](CC(C)C)NC(=O)[C@H](Cc1c[nH]c2ccccc12)NC(=O)[C@H](C)NC(=O)[C@@H](NC(=O)[C@H](Cc1ccccc1)NC(=O)[C@H](CCC(=O)O)NC(=O)[C@H](CCCCN)NC(=O)[C@H](C)NC(=O)[C@H](C)NC(=O)[C@H](CCC(N)=O)NC(=O)CNC(=O)[C@H](CCC(=O)O)NC(=O)[C@H](CC(C)C)NC(=O)[C@H](Cc1ccc(O)cc1)NC(=O)[C@H](CO)NC(=O)[C@H](CO)NC(=O)[C@@H](NC(=O)[C@H](CC(=O)O)NC(=O)[C@H](CO)NC(=O)[C@@H](NC(=O)[C@H](Cc1ccccc1)NC(=O)[C@@H](NC(=O)CNC(=O)[C@H](CCC(=O)O)NC(=O)CNC(=O)[C@@H](N)Cc1c[nH]cn1)[C@@H](C)O)[C@@H](C)O)C(C)C)[C@@H](C)CC)C(C)C)C(=O)NCC(=O)N[C@@H](CCCNC(=N)N)C(N)=O [ALY688-GLP1v(Lys34)]
- % of Time 0 [1]: 100%
- remaining at 1 h, 1000 ng/ml [1]: 95%
- remaining at 8 h, 1000 ng/ml [1]: 74%
- remaining at 22 h, 1000 ng/ml [1]: 49%
- resistance to proteolytic degradation compared with GLP1 peptide [1]: better resistance to proteolytic degradation
- blood glucose levels after glucose load [2]: greater glucose lowering action
- change in AUC / total exposure compared with GLP1v peptide [3]: decrease in total exposure
- change in Tmax compared with GLP1v peptide [3]: further increase in the Tmax
- AUC(0-t) [3]: 0.177 µg·h/mL
- Cmax [3]: 0.267 µg/mL
- Tmax [3]: 15 min

Molecule: CCC[C@H](NC(=O)[C@@H]1CCCN1C(=O)[C@@H](NC(=O)[C@H](N)CC(N)=O)[C@@H](C)CC)C(=O)N[C@@H](CC(C)C)C(=O)N[C@@H](Cc1ccc(O)cc1)C(=O)N[C@H](CO)C(=O)N[C@@H](Cc1ccccc1)C(=O)N[C@@H](C)C(=O)N[C@H](CO)C(=O)NCC(=O)NCC(=O)NCC(=O)NCCCC[C@H](NC(=O)[C@H](C)NC(=O)[C@H](C)NC(=O)[C@H](CCC(N)=O)NC(=O)CNC(=O)[C@H](CCC(=O)O)NC(=O)[C@H](CC(C)C)NC(=O)[C@H](Cc1ccc(O)cc1)NC(=O)[C@H](CO)NC(=O)[C@H](CO)NC(=O)[C@@H](NC(=O)[C@H](CC(=O)O)NC(=O)[C@H](CO)NC(=O)[C@@H](NC(=O)[C@H](Cc1ccccc1)NC(=O)[C@@H](NC(=O)CNC(=O)[C@H](CCC(=O)O)NC(=O)CNC(=O)[C@@H](N)Cc1c[nH]cn1)[C@@H](C)O)[C@@H](C)O)C(C)C)C(=O)N[C@@H](CCC(=O)O)C(=O)N[C@@H](Cc1ccccc1)C(=O)N[C@H](C(=O)N[C@@H](C)C(=O)N[C@@H](Cc1c[nH]c2ccccc12)C(=O)N[C@@H](CC(C)C)C(=O)N[C@H](C(=O)N[C@@H](CCCCN)C(=O)NCC(=O)N[C@@H](CCCNC(=N)N)C(N)=O)C(C)C)[C@@H](C)CC [ALY688-GLP1v(Lys26)]
- % of Time 0 [1]: 100%
- remaining at 1 h, 1000 ng/ml [1]: 99%
- remaining at 8 h, 1000 ng/ml [1]: 74%
- remaining at 22 h, 1000 ng/ml [1]: 40%
- resistance to proteolytic degradation compared with GLP1 peptide [1]: better resistance to proteolytic degradation
- blood glucose levels after glucose load [2]: greater glucose lowering action
- change in AUC / total exposure compared with GLP1v peptide [3]: two-fold increase
- AUC(0-t) [3]: 1.02 µg·h/mL
- Cmax [3]: 1.61 µg/mL
- Tmax [3]: 10 min

Molecule: CCC[C@H](NC(=O)[C@@H]1CCCN1C(=O)[C@@H](NC(=O)[C@H](N)CC(N)=O)[C@@H](C)CC)C(=O)N[C@@H](CC(C)C)C(=O)N[C@@H](Cc1ccc(O)cc1)C(=O)N[C@H](CO)C(=O)N[C@@H](Cc1ccccc1)C(=O)N[C@@H](C)C(=O)N[C@H](CO)C(=O)NCC(=O)NCC(=O)NCC(=O)NCCCC[C@H](NC(=O)[C@H](C)NC(=O)[C@H](C)NC(=O)[C@H](CCC(N)=O)NC(=O)CNC(=O)[C@H](CCC(=O)O)NC(=O)[C@H](CC(C)C)NC(=O)[C@H](Cc1ccc(O)cc1)NC(=O)[C@H](CO)NC(=O)[C@H](CO)NC(=O)[C@@H](NC(=O)[C@H](CC(=O)O)NC(=O)[C@H](CO)NC(=O)[C@@H](NC(=O)[C@H](Cc1ccccc1)NC(=O)[C@@H](NC(=O)CNC(=O)[C@H](CCC(=O)O)NC(=O)CNC(=O)[C@@H](N)Cc1c[nH]cn1)[C@@H](C)O)[C@@H](C)O)C(C)C)C(=O)N[C@@H](CCC(=O)O)C(=O)N[C@@H](Cc1ccccc1)C(=O)N[C@H](C(=O)N[C@@H](C)C(=O)N[C@@H](Cc1c[nH]c2ccccc12)C(=O)N[C@@H](CC(C)C)C(=O)N[C@H](C(=O)N[C@@H](CCCCNC(=O)CNC(=O)CNC(=O)CNC(=O)[C@@H](CO)NC(=O)[C@H](C)NC(=O)[C@H](Cc1ccccc1)NC(=O)[C@@H](CO)NC(=O)[C@H](Cc1ccc(O)cc1)NC(=O)[C@H](CC(C)C)NC(=O)[C@H](CCC)NC(=O)[C@@H]1CCCN1C(=O)[C@@H](NC(=O)[C@H](N)CC(N)=O)[C@@H](C)CC)C(=O)NCC(=O)N[C@@H](CCCNC(=N)N)C(N)=O)C(C)C)[C@@H](C)CC [ALY688-GLP1v(Lys26,34)]
- change in AUC / total exposure compared with GLP1v peptide [3]: decrease in total exposure
- change in Tmax compared with GLP1v peptide [3]: further increase in the Tmax
- AUC(0-t) [3]: 0.358 µg·h/mL
- Cmax [3]: 0.372 µg/mL
- Tmax [3]: 15 min

Molecule: H-DAsn-Ile-Pro-Nva-Leu-Tyr-DSer-Phe-Ala-DSer-NH2 (H-[dN]IP[Nva]LY[dS]FA[dS]-NH2; SMILES CCC[C@H](NC(=O)[C@@H]1CCCN1C(=O)[C@@H](NC(=O)[C@H](N)CC(N)=O)[C@@H](C)CC)C(=O)N[C@@H](CC(C)C)C(=O)N[C@@H](Cc1ccc(O)cc1)C(=O)N[C@H](CO)C(=O)N[C@@H](Cc1ccccc1)C(=O)N[C@@H](C)C(=O)N[C@H](CO)C(N)=O) [ALY688, 10 amino acid chemically synthesized adiponectin receptor agonist peptide, reference compound]
- blood glucose levels after glucose load [2]: no glucose effect
- P38MAPK (T180/Y182) phosphorylation [4]: increased

Molecule: CC[C@H](C)[C@H](NC(=O)[C@H](Cc1ccccc1)NC(=O)[C@H](CCC(=O)O)NC(=O)[C@H](CCCCN)NC(=O)[C@H](C)NC(=O)[C@H](C)NC(=O)[C@H](CCC(N)=O)NC(=O)CNC(=O)[C@H](CCC(=O)O)NC(=O)[C@H](CC(C)C)NC(=O)[C@H](Cc1ccc(O)cc1)NC(=O)[C@H](CO)NC(=O)[C@H](CO)NC(=O)[C@@H](NC(=O)[C@H](CC(=O)O)NC(=O)[C@H](CO)NC(=O)[C@@H](NC(=O)[C@H](Cc1ccccc1)NC(=O)[C@@H](NC(=O)CNC(=O)[C@H](CCC(=O)O)NC(=O)CNC(=O)[C@@H](N)Cc1cnc[nH]1)[C@@H](C)O)[C@@H](C)O)C(C)C)C(=O)N[C@@H](C)C(=O)N[C@@H](Cc1c[nH]c2ccccc12)C(=O)N[C@@H](CC(C)C)C(=O)N[C@H](C(=O)N[C@@H](CCCCN)C(=O)NCC(=O)N[C@@H](CCCNC(=N)N)C(N)=O)C(C)C [GLP1v with Gly8 substitution, reference compound]
- % of Time 0 [1]: 100%
- remaining at 1 h, 1000 ng/ml ([1]; human plasma (K2EDTA)): 85%
- remaining at 8 h, 1000 ng/ml ([1]; human plasma (K2EDTA)): 41%
- remaining at 22 h, 1000 ng/ml ([1]; human plasma (K2EDTA)): 24%
- blood glucose levels after glucose load [2]: expected glucose-lowering activity
- AUC(0-t) [3]: 0.525 µg·h/mL
- Cmax [3]: 0.781 µg/mL
- Tmax [3]: 5 min
